Measurements from the NIST ThermoML archive (doi:10.1016/j.tca.2014.07.022).

Experiment: xn = mol fraction of the nth substance listed
Details: 100 kPa, Liquid; for viscosity: Concentric cylinders viscometry; for mass density: Vibrating tube method

CC(=O)CC(C)C [4-methylpentan-2-one] + CC(C)O
Details	mass density [kg/m3]	viscosity [mPa·s]
293.15 K, x1 = 0.067	786.4	1.722
293.15 K, x1 = 0.1344	787.5	1.361
293.15 K, x1 = 0.2044	788.6	1.141
293.15 K, x1 = 0.3035	790.2	0.962
293.15 K, x1 = 0.3848	791.4	0.856
293.15 K, x1 = 0.5098	793.4	0.737
293.15 K, x1 = 0.5987	794.7	0.691
293.15 K, x1 = 0.6986	796.3	0.651
293.15 K, x1 = 0.8138	798	0.619
293.15 K, x1 = 0.9278	799.8	0.605
293.15 K, x1 = 1	800.8	0.588
298.15 K, x1 = 0.067	782.1	1.516
298.15 K, x1 = 0.1344	783.1	1.217
298.15 K, x1 = 0.2044	784.1	1.029
298.15 K, x1 = 0.3035	785.6	0.877
298.15 K, x1 = 0.3848	786.8	0.784
298.15 K, x1 = 0.5098	788.6	0.684
298.15 K, x1 = 0.5987	790	0.64
298.15 K, x1 = 0.6986	791.5	0.608
298.15 K, x1 = 0.8138	793.2	0.581
298.15 K, x1 = 0.9278	795	0.568
298.15 K, x1 = 1	796.1	0.554
303.15 K, x1 = 0.067	777.7	1.346
303.15 K, x1 = 0.1344	778.6	1.09
303.15 K, x1 = 0.2044	779.6	0.932
303.15 K, x1 = 0.3035	781	0.8
303.15 K, x1 = 0.3848	782.2	0.725
303.15 K, x1 = 0.5098	784	0.638
303.15 K, x1 = 0.5987	785.4	0.601
303.15 K, x1 = 0.6986	786.9	0.571
303.15 K, x1 = 0.8138	788.7	0.547
303.15 K, x1 = 0.9278	790.5	0.534
303.15 K, x1 = 1	791.6	0.523
308.15 K, x1 = 0.067	773.2	1.19
308.15 K, x1 = 0.1344	774.1	0.985
308.15 K, x1 = 0.2044	775	0.849
308.15 K, x1 = 0.3035	776.4	0.736
308.15 K, x1 = 0.3848	777.5	0.669
308.15 K, x1 = 0.5098	779.3	0.594
308.15 K, x1 = 0.5987	780.7	0.562
308.15 K, x1 = 0.6986	782.2	0.536
308.15 K, x1 = 0.8138	784	0.515
308.15 K, x1 = 0.9278	785.7	0.503
308.15 K, x1 = 1	786.9	0.493
313.15 K, x1 = 0.067	768.7	1.059
313.15 K, x1 = 0.1344	769.5	0.884
313.15 K, x1 = 0.2044	770.4	0.769
313.15 K, x1 = 0.3035	771.8	0.675
313.15 K, x1 = 0.3848	772.9	0.619
313.15 K, x1 = 0.5098	774.7	0.555
313.15 K, x1 = 0.5987	776	0.528
313.15 K, x1 = 0.6986	777.5	0.505
313.15 K, x1 = 0.8138	779.3	0.486
313.15 K, x1 = 0.9278	781.1	0.473
313.15 K, x1 = 1	782.3	0.463
318.15 K, x1 = 0.067	764.1	0.949
318.15 K, x1 = 0.1344	764.8	0.799
318.15 K, x1 = 0.2044	765.7	0.695
318.15 K, x1 = 0.3035	767	0.615
318.15 K, x1 = 0.3848	768.1	0.565
318.15 K, x1 = 0.5098	769.9	0.516
318.15 K, x1 = 0.5987	771.2	0.495
318.15 K, x1 = 0.6986	772.7	0.475
318.15 K, x1 = 0.8138	774.6	0.459
318.15 K, x1 = 0.9278	776.4	0.447
318.15 K, x1 = 1	777.6	0.437
323.15 K, x1 = 0.067	759.4	0.845
323.15 K, x1 = 0.1344	760.2	0.718
323.15 K, x1 = 0.2044	761	0.629
323.15 K, x1 = 0.3035	762.3	0.56
323.15 K, x1 = 0.3848	763.4	0.52
323.15 K, x1 = 0.5098	765.2	0.48
323.15 K, x1 = 0.5987	766.5	0.462
323.15 K, x1 = 0.6986	768.1	0.448
323.15 K, x1 = 0.8138	769.9	0.435
323.15 K, x1 = 0.9278	771.8	0.422
323.15 K, x1 = 1	773	0.41

CCCC(C)O (stereo not drawn) [pentan-2-ol] + CC(=O)CC(C)C
Details	mass density [kg/m3]	viscosity [mPa·s]
293.15 K, x2 = 0	809.3	3.974
293.15 K, x2 = 0.0812	807.6	2.699
293.15 K, x2 = 0.1588	806.2	2.09
293.15 K, x2 = 0.2391	804.9	1.709
293.15 K, x2 = 0.3508	803.3	1.366
293.15 K, x2 = 0.4441	802.4	1.14
293.15 K, x2 = 0.561	801.4	0.924
293.15 K, x2 = 0.6484	800.9	0.818
293.15 K, x2 = 0.741	800.7	0.74
293.15 K, x2 = 0.8528	800.5	0.671
293.15 K, x2 = 0.9406	800.7	0.63
298.15 K, x2 = 0	805.3	3.277
298.15 K, x2 = 0.0812	803.5	2.326
298.15 K, x2 = 0.1588	801.9	1.83
298.15 K, x2 = 0.2391	800.6	1.496
298.15 K, x2 = 0.3508	799	1.202
298.15 K, x2 = 0.4441	797.9	1.018
298.15 K, x2 = 0.561	796.9	0.85
298.15 K, x2 = 0.6484	796.4	0.767
298.15 K, x2 = 0.741	796	0.69
298.15 K, x2 = 0.8528	795.9	0.63
298.15 K, x2 = 0.9406	795.9	0.59
303.15 K, x2 = 0	801.2	2.717
303.15 K, x2 = 0.0812	799.3	2.029
303.15 K, x2 = 0.1588	797.7	1.619
303.15 K, x2 = 0.2391	796.3	1.333
303.15 K, x2 = 0.3508	794.6	1.078
303.15 K, x2 = 0.4441	793.5	0.928
303.15 K, x2 = 0.561	792.4	0.787
303.15 K, x2 = 0.6484	791.9	0.711
303.15 K, x2 = 0.741	791.5	0.641
303.15 K, x2 = 0.8528	791.3	0.589
303.15 K, x2 = 0.9406	791.4	0.553
308.15 K, x2 = 0	797	2.282
308.15 K, x2 = 0.0812	795	1.757
308.15 K, x2 = 0.1588	793.4	1.429
308.15 K, x2 = 0.2391	791.9	1.185
308.15 K, x2 = 0.3508	790.1	0.966
308.15 K, x2 = 0.4441	788.9	0.842
308.15 K, x2 = 0.561	787.8	0.728
308.15 K, x2 = 0.6484	787.2	0.663
308.15 K, x2 = 0.741	786.8	0.6
308.15 K, x2 = 0.8528	786.6	0.554
308.15 K, x2 = 0.9406	786.7	0.526
313.15 K, x2 = 0	792.7	1.931
313.15 K, x2 = 0.0812	790.6	1.52
313.15 K, x2 = 0.1588	788.9	1.249
313.15 K, x2 = 0.2391	787.4	1.051
313.15 K, x2 = 0.3508	785.6	0.876
313.15 K, x2 = 0.4441	784.3	0.773
313.15 K, x2 = 0.561	783.2	0.675
313.15 K, x2 = 0.6484	782.6	0.617
313.15 K, x2 = 0.741	782.2	0.561
313.15 K, x2 = 0.8528	782	0.522
313.15 K, x2 = 0.9406	782.1	0.497
318.15 K, x2 = 0	788.4	1.647
318.15 K, x2 = 0.0812	786.3	1.329
318.15 K, x2 = 0.1588	784.5	1.116
318.15 K, x2 = 0.2391	782.9	0.949
318.15 K, x2 = 0.3508	781	0.8
318.15 K, x2 = 0.4441	779.8	0.712
318.15 K, x2 = 0.561	778.6	0.627
318.15 K, x2 = 0.6484	778	0.577
318.15 K, x2 = 0.741	777.6	0.53
318.15 K, x2 = 0.8528	777.3	0.492
318.15 K, x2 = 0.9406	777.4	0.465
323.15 K, x2 = 0	784	1.419
323.15 K, x2 = 0.0812	781.9	1.168
323.15 K, x2 = 0.1588	780	0.995
323.15 K, x2 = 0.2391	778.4	0.855
323.15 K, x2 = 0.3508	776.5	0.729
323.15 K, x2 = 0.4441	775.2	0.654
323.15 K, x2 = 0.561	774	0.583
323.15 K, x2 = 0.6484	773.4	0.543
323.15 K, x2 = 0.741	772.9	0.505
323.15 K, x2 = 0.8528	772.7	0.468
323.15 K, x2 = 0.9406	772.8	0.445
